Source: patent US11337982B2, “Combined treatment with a TLR7 agonist and an HBV capsid assembly inhibitor” (Hoffmann-La Roche Inc., priority 2016, dated 2022)
Values belong to the molecule of their own block, whether it stands above or below them.

Assays:
[1] = tested on: HBV; conditions: HBV infected transgenic mouse or humanized mouse models; cited from earlier work
[2] = biological target: T1, human TLR7 (Homo sapiens, UniProt Q9NYK1); assay: HEK293-Blue-hTLR-7 cells assay (SEAP reporter); type: cell-based; conditions: active moiety; read-out: potency to active TLR7 in HEK293-hTLR7 assay
T1 sequence (Q9NYK1 27-1049): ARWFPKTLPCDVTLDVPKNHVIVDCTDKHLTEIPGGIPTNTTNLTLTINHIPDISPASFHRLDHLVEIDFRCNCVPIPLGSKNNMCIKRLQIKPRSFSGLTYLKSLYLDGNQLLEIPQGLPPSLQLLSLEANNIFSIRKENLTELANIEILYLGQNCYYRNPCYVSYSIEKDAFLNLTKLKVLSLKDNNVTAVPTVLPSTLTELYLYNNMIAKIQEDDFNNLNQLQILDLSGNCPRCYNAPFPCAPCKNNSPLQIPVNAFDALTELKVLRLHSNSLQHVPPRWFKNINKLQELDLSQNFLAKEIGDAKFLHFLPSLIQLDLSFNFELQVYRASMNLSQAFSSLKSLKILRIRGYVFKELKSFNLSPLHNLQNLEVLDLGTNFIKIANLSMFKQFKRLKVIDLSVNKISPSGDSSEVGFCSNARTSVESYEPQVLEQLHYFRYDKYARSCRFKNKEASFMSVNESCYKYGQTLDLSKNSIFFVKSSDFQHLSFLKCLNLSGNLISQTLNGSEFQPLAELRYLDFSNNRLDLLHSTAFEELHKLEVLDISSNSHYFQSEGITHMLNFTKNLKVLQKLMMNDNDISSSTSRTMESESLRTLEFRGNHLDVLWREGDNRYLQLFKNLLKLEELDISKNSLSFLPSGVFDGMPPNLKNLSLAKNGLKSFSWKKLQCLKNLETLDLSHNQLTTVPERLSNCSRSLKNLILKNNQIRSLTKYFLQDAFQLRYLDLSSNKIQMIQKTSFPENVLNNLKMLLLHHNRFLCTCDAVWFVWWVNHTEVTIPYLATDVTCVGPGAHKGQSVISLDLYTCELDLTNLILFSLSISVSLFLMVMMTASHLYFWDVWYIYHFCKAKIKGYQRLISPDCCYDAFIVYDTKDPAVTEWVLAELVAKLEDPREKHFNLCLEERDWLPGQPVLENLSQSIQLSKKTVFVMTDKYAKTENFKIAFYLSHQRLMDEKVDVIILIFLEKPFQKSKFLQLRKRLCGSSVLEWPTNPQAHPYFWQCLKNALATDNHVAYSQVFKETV
Text: HEK293-Blue-hTLR-7 Cells Assay:
A stable HEK293-Blue-hTLR-7 cell line was purchased from InvivoGen (Cat.#: hkb-htlr7, San Diego, Calif., USA). These cells were designed for studying the stimulation of human TLR7 by monitoring the activation of NF-κB. A reporter gene of secreted embryonic alkaline phosphatase (SEAP) was placed under the control of the IFN-β[…]minimal promoter fused to five NF-κB and AP-1-binding sites. SEAP was induced by the activation of NF-κB and AP-1 upon stimulating HEK-Blue hTLR7 cells with TLR7 ligands. SEAP activity in cell culture supernatant was determined using QUANTI-Blue™ kit (Cat.#: rep-qb1, Invivogen, San Diego, Calif., USA) at a wavelength of 640 nm. Such reporter assays have been widely used for evaluation of TLR7 agonism (Tsuneyasu Kaisho and Takashi Tanaka, Trends in Immunology, Volume 29, Issue 7, July 2008, […]; Hiroaki Hemmi et al, Nature Immunology 3, 196-200 (2002).
Specifically, HEK293-Blue-hTLR7 cells were incubated at a density of 250,000˜450,000 cells/mL in a volume of 180 μL in a 96-well plate in Dulbecco's Modified Eagle's medium (DMEM) containing 4.5 g/L glucose, 50 U/mL penicillin, […], […], 2 mM L-glutamine, 10% (v/v) heat-inactivated fetal bovine serum for 24 h. The cells were then incubated with 20 μL of test compound in a serial dilution at 37° C. in a CO2 incubator for 20 hours. Then 20 μL of the supernatant from each well was incubated with 180 μL Quanti-blue substrate solution at 37° C. for 2 hours and the absorbance was measured at 620˜655 nm using a spectrophotometer.

[3] = Conversion of prodrug into active moiety
[4] = tested on: AAV-HBV; assay: AAV-HBV mouse model, serum HBV biomarkers; type: in vivo; conditions: Compound 5 20 mg/kg QD, p.o., after 42 days of treatment
Text: 4-week old male C57BL/6 mice, specific pathogen free, were purchased from Shanghai Laboratory Animal Center of Chinese Academy of Sciences (SLAC) and housed in an animal care facility in individually ventilated cages under controlled temperature and light conditions following the Institutional Animal Care guidelines. AAV-HBV virus was purchased from Beijing FivePlus Molecular Medicine Institute (Beijing, China). This recombinant virus carries 1.3 copies of the HBV genome, which was packaged in AAV serotype 8 (AAV8) capsids. C57BL/6 mice were injected with 200 μL of recombinant virus, diluted in saline buffer, through tail vein injection. After 3-4 weeks, animals were bled to monitor HBV genomic DNA and surface antigen (HBsAg) in serum, and then were randomly grouped according to these HBV biomarkers.
Serum HBsAg was measured using CLIA kits (Autobio Diagnostics Co., Ltd, Zhengzhou, China) according to the manufacturer's instructions. The lower limit of detection (LLOQ) for HBsAg was 0.05 IU/mL. 500-fold dilution of serum was used to obtain values within the linear range of standard curves. Serum HBV DNA was extracted using a MagNA Pure 96 DNA and Viral NA Small Volume Kit (Roche) following the manufacturer's instructions. The DNA samples were analyzed by real-time quantitative PCR (qPCR) using a HBV-specific primer and probe set for specific amplification and detection of a 128 bp HBV genome region from the nucleotide 2969 to 3096. The sequences of the primers and probe are shown as follows: […]
Anti-HBs antibody was examined in mouse serum using the anti-HBs CLIA kit (Antobio, Zhengzhou, China) according to the manufacturer's instruction with modification. ˜15 μL of the diluted (1:3) mouse serum samples were thawed at room temperature for 10 mins. 6 μL of sample was further diluted in 30 μL of PBS to make the final dilution 1:18 for the antibody test. Standard curve were prepared with monoclonal mouse antibody Anti-Hepatitis B Virus Surface Antigen (Ad/Ay) antibody [S35] (Abcam ab20402) in diluted Naive mouse serum (1:18 dilution in PBS). 1 μL of 1 mg/ml anti-HBs antibody was added into 500 μL of diluted mouse serum to make standard 1 as final concentration 2000 ng/ml. 50 μL of standard 1 then was added into 150 μL of diluted mouse serum to make standard 2 (1:4 dilution). 7 points standards were required for the test. The final concentration of standard 7 was (0.488 ng/ml). Blank serum was used as background control. 25 μL of diluted serum sample/standards/Blank was transferred into 96-well plate. Samples were incubated at room temperature for 1 hour followed by 3 times washing with 300 μL of PBST. 0.5 mg/ml of Goat anti-mouse IgG Biotinylated (Mabtech 3825-6-250) was diluted into PBS to final concentration 1 μg/ml (1:500 dilution). […] anti-mouse IgG Bio was added into plate, incubated at room temperature for 1 hour followed by 3 times washing with 300 μL of PBST. Streptavidin-HRP (Mabtech 3310-9) was diluted into PBS (1:250). 50 μL of diluted Streptavidin-HRP was incubated at room temperature for 1 hour followed by 3 times washing with 300 μL of PBST. Substrate A and substrate B (AntuBio) were mixed. 50 μL of mixture were added into plated and incubated for 10 mins before subjected to luminescence reading with Envision microplate reader. The lower limit of detection for anti HBsAb was 36 ng/mL. The anti HBsAb results were calculated from Luminescence raw data fitting on the anti HBsAb standard curve by SoftMax Pro (v5.4.1) software.
In Group 01, animals were treated with Vehicle every other day (QOD) for 42 days and served as the placebo control. In Group 02, Compound 4 was dosed once weekly (QW) at 10 mg/kg for 42 days. Compound 5 was dosed once daily (QD) at 20 mg/kg for 42 days alone in Group 03, or in combination with 10 mg/kg of Compound 4 QW in Group 04. All the test articles were administered by oral gavage (PO) with a total dose volume of 10 mL/kg. The 42-day treatment was followed by a 42-day off-treatment period. […]

[5] = Example 6, Compound 3 1 mg/kg QOW
[6] = Example 5, Compound 4 10 mg/kg QW

EC50 [2]: 110 nM
Compound: CC[S@@](=N)(=O)c1nc(N)c2[nH]c(=O)n(Cc3ccc(C)cc3)c2n1 [Compound 4f-A, 6-amino-2-(S(R)-ethylsulfonimidoyl)-9-(p-tolylmethyl)-7H-purin-8-one]

EC50 [2]: 85 nM
Compound: CC[S@@](=N)(=O)c1nc(N)c2[nH]c(=O)n(Cc3ccc(Cl)cc3)c2n1 [Compound 1e-B]

EC50 [2]: 71 nM
Compound: CC[S@](=N)(=O)c1nc(N)c2[nH]c(=O)n(Cc3ccc(Cl)cc3)c2n1 (single isomer, unassigned) [Compound 1e-A]

conversion of prodrug into the active moiety [3]: efficiently converted
Compound: CCCN(C)C(=O)n1c(=O)n(Cc2ccc(Cl)cc2)c2nc([S@@](=N)(=O)CC)nc(N)c21 [Compound 1, 6-Amino-9-[(4-chlorophenyl)methyl]-2-[S(S)-ethylsulfonimidoyl]-N-methyl-8-oxo-N-propyl-purine-7-carboxamide]

conversion of prodrug into the active moiety [3]: efficiently converted
Compound: CCCN(C)C(=O)n1c(=O)n(Cc2ccc(Cl)cc2)c2nc([S@](=N)(=O)CC)nc(N)c21 [Compound 2, 6-amino-9-[(4-chlorophenyl)methyl]-2-[S(R)-ethylsulfonimidoyl]-N-methyl-8-oxo-N-propyl-purine-7-carboxamide]

The next lines start with the molecule.

Compound: COC(=O)C1=C(C)NC(c2ncc(F)cc2F)=N[C@H]1c1ccc(F)cc1Cl [Bay 41-4109]
in vivo efficacy, HBV DNA [1]: in vivo efficacy with HBV DNA reduction

Compound: CCN(C)C(=O)n1c(=O)n(Cc2ccc(Cl)cc2)c2nc([S@@](=N)(=O)CC)nc(N)c21 [Compound 3, 6-Amino-9-[(4-chlorophenyl)methyl]-N-ethyl-2-[S(S)-(ethylsulfonimidoyl)]-N-methyl-8-oxo-purine-7-carboxamide]
conversion of prodrug into the active moiety [3]: efficiently converted
HBV DNA reduction [4, 5]: significant reduction
HBsAg reduction [4, 5]: significant reduction

Compound: CCOC(=O)C1=C(CN2CCN3C(=O)N(CC(C)(C)C(=O)O)C[C@@H]3C2)NC(c2nccs2)=N[C@H]1c1cccc(F)c1C [Compound 5, 3-[(8aS)-7-[[(4S)-5-ethoxycarbonyl-4-(3-fluoro-2-methyl-phenyl)-2-thiazol-2-yl-1,4-dihydropyrimidin-6-yl]methyl]-3-oxo-5,6,8,8a-tetrahydro-1H-imidazo[1,5-a]pyrazin-2-yl]-2,2-dimethyl-propanoic acid]
HBV DNA reduction [4, 6]: significant reduction
HBsAg reduction [4, 6]: significant reduction
HBV DNA reduction [4, 5]: significant reduction
HBsAg reduction [4, 5]: significant reduction

Compound: CCCN(C)C(=O)n1c(=O)n(Cc2ccc(C)cc2)c2nc([S@](=N)(=O)CC)nc(N)c21 [Compound 4, 6-Amino-2-[S(R)-(ethylsulfonimidoyl)]-N-methyl-8-oxo-N-propyl-9-(p-tolylmethyl)purine-7-carboxamide]
conversion of prodrug into the active moiety [3]: efficiently converted
HBV DNA reduction [4, 6]: significant reduction
HBsAg reduction [4, 6]: significant reduction
